Target: T1, His-Cbl(TKB) (Homo sapiens, UniProt P22681)
T1 sequence (P22681 47-351 limits assumed): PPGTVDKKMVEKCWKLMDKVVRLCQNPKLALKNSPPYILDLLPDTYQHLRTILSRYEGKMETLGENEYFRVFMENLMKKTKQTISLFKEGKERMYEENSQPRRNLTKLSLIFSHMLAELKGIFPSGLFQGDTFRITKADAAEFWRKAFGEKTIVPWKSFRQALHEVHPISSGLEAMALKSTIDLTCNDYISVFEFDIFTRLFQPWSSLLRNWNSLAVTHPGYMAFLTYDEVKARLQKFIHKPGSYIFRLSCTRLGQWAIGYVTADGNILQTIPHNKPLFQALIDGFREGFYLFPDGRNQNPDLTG
Assay: Competitive FP assay, displacement of labeled ZAP70 peptide 1 from His-Cbl
Assay type: binding
Settings: 100 nM labeled peptide 1

With CC(=O)N[C@H](C(=O)N[C@@H](CC(C)C)C(=O)N[C@@H](CC(N)=O)C(=O)N[C@@H](CO)C(=O)N[C@@H](CC(=O)O)C(=O)NCC(=O)N[C@@H](Cc1ccc(OP(=O)(O)O)cc1)C(=O)N[C@H](C(=O)N1CCC[C@H]1C(=O)N[C@@H](CCC(=O)O)C(=O)N1CCC[C@H]1C(=O)N[C@@H](C)C(N)=O)[C@@H](C)O)[C@@H](C)O [ZAP70 peptide 2, Ac-TLNSDGpYTPEPA-CONH2] the “ΔmP (competition)” value (0.3 μM His-Cbl(TKB)) was “do not give measureable IC50 or ΔmP values”, the “ΔmP (competition)” value (1.25 μM His-Cbl(TKB)) was “do not give measureable IC50 or ΔmP values” and the “ΔmP (competition)” value (5 μM His-Cbl(TKB)) was 52.5 mP. The “ΔmP (competition)” value (9 μM His-Cbl(TKB)) was 85.2 mP and the “ΔmP (competition)” value ([…] His-Cbl(TKB)) was 25.7 mP.
